# Reference: patent US10308682B2, “Inhibition of tumor growth with aggregates of small molecules” (BRANDEIS UNIVERSITY, priority 2013, dated 2019)
# Tests used:
# [1] = test system: U87MG; experiment: Cell viability assay (MTT), U87MG; type: cell-based
# Experimental: (§1) Cells in exponential growth phase were seeded in a 96 well plate at a concentration of 50,000 cell/well. The cells were allowed to attach to the wells for 24 h at 37° C., 5% CO2, then the culture medium was removed and 100 μL new culture medium containing 1 at gradient concentrations was placed into each well. After culturing at 37° C., 5% CO2 for desired time, each well was added by 10 μL of 5 mg/mL MTT 43-(4,5-Dimethylthiazol-2-yl)-2,5-diphenyltetrazolium bromide), and the plated cells were incubate at dark for 4 h. 100 μL 10% SDS with 0.01 M HCl was added to each well to stop the reduction reaction and to dissolve the purple. After incubation of the cells at 37° C. for overnight, the viability is measured. Data represent the mean±standard deviation of three independent experiments.
# (§2) The estimation of the threshold concentration of aggregation (320-340 μM) for 1 allows us to examine the cytotoxicity of 1 in monomer and molecular aggregate forms. We first tested the cytotoxicity of 1 towards HeLa cells, the most widely studied cancer cell line, below and above the threshold concentration.
# [2] = test system: PC12; experiment: Cell viability assay (MTT), PC12 neuronal cell line; type: cell-based
# Experimental: (§3) FIG. 10 depicts the long term cytotoxicity of 1 on PC12 cells. Related to FIG. 2. (a) MTT viability test of cell incubated with gradient concentration of 1 for up to 7 days without changing medium. Data are presented as mean±SD of three independent experiments. (b) Intracellular concentration of 1 in PC12 cells treated with 1 for 12 h at 37° C. measured by LC-MS (left bar=400 μM; right bar=300 μM). (c) Cells were subcultured and re-seeded with new medium containing the same concentration of 1 (0 for control group and 400 μM for test group) every 4 days. Data are presented as mean±SD of three independent experiments.
# as §1, §2
# [3] = as above; type: cell-based; settings: rat, PC12 cells; 400 and 500 μM, 7 days
# Experimental: as §3, §1, §2
# [4] = test system: MCF-7; experiment: Cell viability assay (MTT), MCF-7; type: cell-based
# Experimental: as §1, §2
# [5] = test system: MES-SA; experiment: Cell viability assay (MTT), MES-SA; type: cell-based
# Experimental: as §1, §2
# [6] = molecular target: T1, tubulin (Homo sapiens, UniProt P68366+P68371); experiment: Hydrogel based protein pull-down assay, tubulin; type: binding; settings: hydrogel 10 mM, HeLa cell lysate, Western blot
# T1 construct: snap freeze and thaw for 3 cycles to lyse the cells; endogenous in cells; host or cells: HeLa cell lysate
# Experimental: 4×10^7 of HeLa cells were scrapped from petri dish and washed with PBS buffer for 3 times then centrifuged at 300 g for 5 minutes. The collected cell pellet was mixed with phosphate buffer (100 mM) then snap freeze and thaw for 3 cycles to lyse the cells. The cell lysate was clarified by centrifugation at 12,000 g for 20 min at 4° C. to remove the whole cells, nuclei and large mitochondria. 50 μL of the supernatant lysate was gently mixed with 30 μL hydrogel of 1 (10 mM in PBS buffer, pH 7.6) on rotator at RT for 30 min. The hydrogel was collected by centrifugation (12,000 g, 5 min, 4° C.) and the supernatant was collected and placed on ice before analysis. The hydrogel was washed three times by gently mixing with 50 μL of the washing buffer (50 mM phosphate buffer pH 7.6 supplemented with 150 mM NaCl) on rotator at RT for 10 min followed by separation on centrifuge (12,000 g, 5 min, 4° C.). Supernatants were collected and placed on ice before analysis. Finally, the remaining hydrogel was dissolved using 1:1 washing buffer and 5× Laemeli buffer. All other samples were mixed with 5× Laemeli buffer (final concentration 2×) before SDS-PAGE.
# That 1 enters the cells to affect cell cycle, cell migration, and eventually cell viability implies the interactions between the aggregates of 1 and certain intracellular proteins. […]
# T1 sequence (P68366 whole entry): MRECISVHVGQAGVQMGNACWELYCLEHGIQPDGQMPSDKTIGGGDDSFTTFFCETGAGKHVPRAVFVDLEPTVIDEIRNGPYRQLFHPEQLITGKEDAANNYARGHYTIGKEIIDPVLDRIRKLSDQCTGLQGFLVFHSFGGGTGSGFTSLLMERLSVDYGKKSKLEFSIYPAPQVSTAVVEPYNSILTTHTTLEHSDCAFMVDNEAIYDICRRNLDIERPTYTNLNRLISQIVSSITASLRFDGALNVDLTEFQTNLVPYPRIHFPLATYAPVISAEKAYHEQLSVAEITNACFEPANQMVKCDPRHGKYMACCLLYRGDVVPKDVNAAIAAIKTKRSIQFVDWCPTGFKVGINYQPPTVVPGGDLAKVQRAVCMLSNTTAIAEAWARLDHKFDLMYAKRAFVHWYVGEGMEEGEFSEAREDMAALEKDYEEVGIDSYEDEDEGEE
# T1 sequence (P68371 whole entry): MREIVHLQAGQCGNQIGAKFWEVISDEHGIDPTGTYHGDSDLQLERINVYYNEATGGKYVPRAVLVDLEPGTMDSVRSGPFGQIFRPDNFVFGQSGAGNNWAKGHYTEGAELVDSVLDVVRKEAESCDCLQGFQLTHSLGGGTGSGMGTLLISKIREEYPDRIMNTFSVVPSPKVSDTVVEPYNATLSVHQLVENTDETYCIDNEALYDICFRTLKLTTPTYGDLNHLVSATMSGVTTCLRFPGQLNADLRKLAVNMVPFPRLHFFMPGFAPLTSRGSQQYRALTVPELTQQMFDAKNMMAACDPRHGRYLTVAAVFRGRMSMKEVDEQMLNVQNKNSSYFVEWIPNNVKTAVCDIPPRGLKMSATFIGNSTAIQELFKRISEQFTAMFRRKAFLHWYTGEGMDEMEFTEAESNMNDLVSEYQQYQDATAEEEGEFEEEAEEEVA
smiles,measurement,setting,value
O=C(Cc1ccc2ccccc2c1)N[C@@H](Cc1ccccc1)C(=O)N[C@@H](Cc1ccccc1)C(=O)O [Compound 1],cytotoxicity towards U87MG,[1],decreases of cell viabilities only observed at 400 and 500 μM
same,"viability of PC12 cells, constant supply of 1","[2]; 400 μM, after 7 days, re-seeded with new medium every 4 days",significant loss of cell viability
same,toxicity towards PC12,[2]; 400 and 500 μM,little toxicity
same,viability at 7 days,[3],> 60%
same,cytotoxicity towards MCF-7,[4],decreases of cell viabilities only observed at 400 and 500 μM
same,cytotoxicity towards MES-SA,[5],decreases of cell viabilities only observed at 400 and 500 μM
same,binding of tubulin to the aggregates of 1,[6],higher affinity to the aggregates of 1 than actin does
